Assay results: article PMC7433030 (Bioorganic & medicinal chemistry, 2020)

What was measured:
[1] = format: in vitro ADME; details: mouse liver microsomes, without NADPH (data not shown)
[2] = In vivo PK study, single subcutaneous dose in CD2F1 mice; details: male, CD2F1, mouse, sc, 200 mg/kg
[3] = system: G-CSF production; assay: In vivo G-CSF stimulation assay; set-up: species or system mouse; details: CD2F1 mice, 200 mg/Kg subcutaneously; for G-CSF production in mice after treatment: plasma G-CSF 8-48 h

Row | Compound | degradation in the absence of NADPH [1] | Tmax [2] | Tmax at 24 h [2] | lag time before plasma G-CSF increase [3] | time of peak plasma G-CSF concentration [3] | G-CSF production in mice after treatment [3]
1 | CC(C)=CCC/C(C)=C/CC/C(C)=C/CC[C@]1(C)CCc2cc(O)cc(C)c2O1 [DT3, δ-tocotrienol] | no degradation was observed | ~1 h | 1 h | about 6 h | 24 h | significant G-CSF production
2 | [2H]C([2H])([2H])C(=CCC/C(C)=C/CC/C(C)=C/CC[C@]1(C)CCc2cc(O)cc(C)c2O1)C([2H])([2H])[2H] [d6-DT3, (R)-2-((3E,7E)-4,8-dimethyl-12-(methyl-d3)trideca-3,7,11-trien-1-yl-13,13,13-d3)-2,8-dimethylchroman-6-ol] | no degradation was observed | – | – | about 6 h | 24 h | significant G-CSF production
